Earlier results as cited in paper PMC7004556 (Cancer Science, 2020).

Assays:
[1] = tested on: FGFR pathway; settings: cited from earlier work
[2] = tested on: patients; settings: phase I study, only at the highest dose investigated (12 mg); cited from earlier work
[3] = tested on: advanced gastric cancer; settings: advanced gastric cancer with FGFR2 polysomy or gene amplification; cited from earlier work
[4] = tested on: advanced solid tumors; settings: Japanese patients with advanced solid tumors, duration ≥4 weeks; cited from earlier work

## COc1cc(OC)cc(N(CCNC(C)C)c2ccc3ncc(-c4cnn(C)c4)nc3c2)c1 [JNJ‐42756493]
[1]; studies in solid tumors
  Phosphate and 1,25‐(OH)2‐vitamin D: increased
[2]
  DLT observed: detachment of retinal pigment epithelium <grade 3 was the only DLT observed

## AZD4547
[1]
  Serum phosphate: increase
[3]
  Effect on progression‐free survival compared with paclitaxel: no significant effect
[4]
  Best response: stable disease
